EC50 data for eight compounds are collected here from US9156818B2, “Hepatitis C virus inhibitors” (Enanta Pharmaceuticals, Inc., priority 2009, dated 2015).

Each structure is given as a SMILES string.

The subject of the test is HCV 1b genotype replicon. Description: HCV genotype-1b replicon assay (qRT-PCR or luciferase). Type of test: cell-based. The conditions noted are these: Hepatitis C virus; HCV 1b replicon cell line (SGR 11-7 or Huh-luc/neo-ET); qRT-PCR or luciferase readout; read-out: Genotype-1b replicon EC50 Range. The source says:
HCV replicon cell lines (kindly provided by R. Bartenschlager) isolated from colonies as described by Lohman et. al. (Lohman et al. (1999) Science 285: 110-113, expressly incorporated by reference in its entirety) and used for all experiments. The HCV replicon has the nucleic acid sequence set forth in EMBL Accession No.: AJ242651, the coding sequence of which is from nucleotides 1801 to 8406.
The coding sequence of the published HCV replicon was synthesized and subsequently assembled in a modified plasmid pBR322 (Promega, Madison, Wis.) using standard molecular biology techniques. One replicon cell line (“SGR 11-7”) stably expresses HCV replicon RNA which consists of (i) the HCV 5′UTR fused to the first 12 amino acids of the capsid protein, (ii) the neomycin phosphotransferase gene (neo), (iii) the IRES from encephalomyocarditis virus (EMCV), and (iv) HCV NS2 to NS5B genes and the HCV 3′UTR. Another replicon cell line (“Huh-luc/neo-ET”) described by Vrolijk et. al. (Vrolijk et. al. (2003) Journal of Virological Methods 110:201-209, expressly incorporated by reference in its entirety) stably expresses HCV replicon RNA which consists of (i) the HCV 5′UTR fused to the first 12 amino acids of the capsid protein, (ii) the firefly luciferase reporter gene, (iii) the ubiquitin gene, (iv) the neomycin phosphotransferase gene (neo), (v) the IRES from encephalomyocarditis virus (EMCV), and (vi) HCV NS3 to NS5B genes that harbor cell culture adaptive mutations (E1202G, T12801, K1846T) and the HCV 3′UTR.
These cell lines were maintained at 37° C., 5% CO2, 100% relative humidity in DMEM (Cat#11965-084, Invitrogen), with 10% fetal calf serum (“FCS”, Invitrogen), 1% non-essential amino acids (Invitrogen), 1% of Glutamax (Invitrogen), 1% of 100× penicillin/streptomycin (Cat#15140-122, Invitrogen) and Geneticin (Cat#10131-027, Invitrogen) at 0.75 mg/ml or 0.5 mg/ml for 11-7 and Huh-luc/neo-ET cells, respectively.
EC50 values of single agent compounds and combinations were determined by HCV RNA detection using quantitative RT-PCR, according to the manufacturer's instructions, with a TAQMAN® One-Step RT-PCR Master Mix Reagents Kit (Cat# AB 4309169, Applied Biosystems) on an ABI Model 7500 thermocycler. The TaqMan primers used for detecting and quantifying HCV RNA were obtained from Integrated DNA Technologies. HCV RNA was normalized to GAPDH RNA levels in drug-treated cells, which was detected and quantified using the Human GAPDH Endogenous Control Mix (Applied Biosystems, AB 4310884E). Total cellular RNA was purified from 96-well plates using the RNAqueous 96 kit (Ambion, Cat# AM1812). Chemical agent cytotoxicity was evaluated using an MTS assay according to the manufacturer's directions (Promega).
Since clinical drug resistance often develops in viral infections following single agent therapies, there is a need to assess the additive, antagonistic, or synergistic properties of combination therapies. We use the HCV replicon system to assess the potential use of the compound of the present invention or in combination therapies with Interferon alpha, cyclosporine analogs and inhibitors targeting other HCV proteins. The acute effects of a single or combinations of drugs are studied in the “Huh-luc/neo-ET” replicon with each chemical agent titrated in an X or Y direction in a 6 point two-fold dilution curve centered around the EC50 of each drug. Briefly, replicon cells are seeded at 7,000 cells per well in 90 ul DMEM (without phenol red, Invitrogen Cat.#31053-036) per well with 10% FCS, 1% non-essential amino acids, 1% of Glutamax and 1% of 1 OOX penicillin/streptomycin and incubated overnight at 37° C., 5% CO2, 100% relative humidity. […]
In general terms: In antiviral work, replicon cells carry a viral genome segment that copies itself.

For orientation: EC50 means the midpoint of the concentration-response curve. Take `COC(=O)N[C@H](C(=O)N1CCC[C@H]1c1nc(-c2ccc3cc(-c4ccc5[nH]c([C@@H]6[C@H]7CC[C@H](C7)N6C(=O)[C@@H](NC(=O)OC)C(C)C)nc5c4)ccc3c2)c[nH]1)C(C)C` [Example 350]: the EC50 is less than 1 nM.
`COC(=O)N[C@H](C(=O)N1CCC[C@H]1c1nc(-c2ccc(C#Cc3ccc4[nH]c([C@@H]5[C@H]6CC[C@H](C6)N5C(=O)[C@@H](NC(=O)OC)C(C)C)nc4c3)cc2)c[nH]1)C(C)C` [Example 338]: the concentration giving a half-maximal response (EC50) was less than 1 nM.
`COC(=O)N[C@H](C(=O)N1[C@@H]2CC[C@@H](C2)[C@H]1c1ncc(-c2ccc(C#Cc3ccc4[nH]c([C@@H]5[C@H]6CC[C@H](C6)N5C(=O)[C@@H](NC(=O)OC)C(C)C)nc4c3)cc2)[nH]1)C(C)C` [Example 346]: the EC50 is less than 1 nM.
In the case of `COC(=O)N[C@H](C(=O)N1CCC[C@H]1c1ncc(-c2ccc(-c3ccc(-c4cnc([C@@H]5[C@H]6CC[C@H](C6)N5C(=O)[C@@H](NC(=O)OC)C(C)C)[nH]4)cc3)cc2)[nH]1)C(C)C` [Example 83] it was less than 1 nM; in that of `COC(=O)N[C@H](C(=O)N1CCC[C@H]1c1ncc(-c2ccc(-c3ccc(-c4cnc([C@H]5[C@@H]6CC[C@@H](C6)N5C(=O)[C@@H](NC(=O)OC)C(C)C)[nH]4)cc3)cc2)[nH]1)C(C)C` [Example 246], less than 1 nM.
The same measure for `COC(=O)N[C@H](C(=O)N1CCC[C@H]1c1nc2cc(C#Cc3ccc(-c4cnc([C@@H]5[C@H]6CC[C@H](C6)N5C(=O)[C@@H](NC(=O)OC)C(C)C)[nH]4)cc3)ccc2[nH]1)C(C)C` [Example 319]: less than 1 nM; for `COC(=O)N[C@H](C(=O)N1CCC[C@H]1c1nc(-c2ccc(-c3ccc(-c4ccc5[nH]c([C@@H]6[C@H]7CC[C@H](C7)N6C(=O)[C@@H](NC(=O)OC)C(C)C)nc5c4)cc3)cc2)c[nH]1)C(C)C` [Example 348]: less than 1 nM; for `COC(=O)N[C@H](C(=O)N1CCC[C@H]1c1nc(-c2ccc(C#Cc3ccc4[nH]c([C@@H]5C6CCC(CC6)N5C(=O)[C@@H](NC(=O)OC)C(C)C)nc4c3)cc2)c[nH]1)C(C)C` [Example 344]: less than 1 nM.
